The results in this text go back to ChEMBL document CHEMBL1140390, “ERbeta ligands. Part 4: Synthesis and structure-activity relationships of a series of 2-phenylquinoline derivatives” (Bioorg Med Chem Lett, 2005).

For one test, the target named is Estrogen receptor beta (Homo sapiens, UniProt Q92731).
Estrogen receptor beta, sequence (Q92731 whole entry): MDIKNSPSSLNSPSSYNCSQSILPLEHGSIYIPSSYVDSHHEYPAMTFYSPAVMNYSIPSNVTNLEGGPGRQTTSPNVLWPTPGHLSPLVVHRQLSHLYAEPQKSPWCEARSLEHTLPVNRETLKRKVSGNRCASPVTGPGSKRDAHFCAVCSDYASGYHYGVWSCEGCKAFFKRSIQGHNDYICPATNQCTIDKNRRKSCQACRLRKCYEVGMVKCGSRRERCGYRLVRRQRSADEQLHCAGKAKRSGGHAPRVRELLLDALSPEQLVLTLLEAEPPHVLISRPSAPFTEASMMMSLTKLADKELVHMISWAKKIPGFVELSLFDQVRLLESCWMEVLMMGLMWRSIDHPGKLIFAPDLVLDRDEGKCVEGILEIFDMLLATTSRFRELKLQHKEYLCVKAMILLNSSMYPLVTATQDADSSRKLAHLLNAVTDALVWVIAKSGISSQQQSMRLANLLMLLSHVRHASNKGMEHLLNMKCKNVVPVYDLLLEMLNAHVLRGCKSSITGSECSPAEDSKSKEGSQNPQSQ
Description: Binding affinity for human Estrogen receptor beta
In the case of `Oc1ccc(-c2ccc3c(Cl)c(O)ccc3n2)cc1`, the IC50 (usually the concentration needed to halve the response being measured) was 30 nM.
Take `CC(O)c1cc(-c2ccc(O)c(F)c2)nc2ccc(O)cc12` (stereo not drawn): the IC50 was over 5000 nM.
Same read-out and setting: the value for `Oc1ccc(-c2ccc3c(Br)c(O)ccc3n2)cc1` was 88 nM.
Still for that read-out and setting: next, `Oc1ccc2nc(-c3ccc(O)c(F)c3)cc(-c3ccccc3)c2c1`: 211 nM; `C=Cc1cc(-c2ccc(O)c(F)c2)nc2ccc(O)cc12`: 44 nM; `CC(=O)c1cc(-c2ccc(O)cc2)nc2ccc(O)cc12`: 221 nM.
On to `Oc1ccc2nc(-c3cc(F)c(O)c(F)c3)cc(Br)c2c1`, for which half-maximal inhibition (IC50) required 36 nM.
On the same count and under the same terms, next, `C#Cc1cc(-c2ccc(O)c(F)c2)nc2ccc(O)cc12`: 27 nM; `CCc1cc(-c2ccc(O)cc2)nc2ccc(O)cc12`: 52 nM.
Same read-out and setting: next, `CCc1cc(-c2ccc(O)c(F)c2)nc2ccc(O)cc12`: 79 nM.
Take `C#Cc1cc(-c2ccc(O)cc2)nc2ccc(O)cc12`: inhibition was half-maximal at 75 nM (IC50).
On the same count and under the same terms, next, `Oc1ccc(-c2ccc3cc(O)ccc3n2)cc1`: 171 nM.

The target of another test is T1, Estrogen receptor (Homo sapiens, UniProt P03372).
T1 sequence (P03372 whole entry): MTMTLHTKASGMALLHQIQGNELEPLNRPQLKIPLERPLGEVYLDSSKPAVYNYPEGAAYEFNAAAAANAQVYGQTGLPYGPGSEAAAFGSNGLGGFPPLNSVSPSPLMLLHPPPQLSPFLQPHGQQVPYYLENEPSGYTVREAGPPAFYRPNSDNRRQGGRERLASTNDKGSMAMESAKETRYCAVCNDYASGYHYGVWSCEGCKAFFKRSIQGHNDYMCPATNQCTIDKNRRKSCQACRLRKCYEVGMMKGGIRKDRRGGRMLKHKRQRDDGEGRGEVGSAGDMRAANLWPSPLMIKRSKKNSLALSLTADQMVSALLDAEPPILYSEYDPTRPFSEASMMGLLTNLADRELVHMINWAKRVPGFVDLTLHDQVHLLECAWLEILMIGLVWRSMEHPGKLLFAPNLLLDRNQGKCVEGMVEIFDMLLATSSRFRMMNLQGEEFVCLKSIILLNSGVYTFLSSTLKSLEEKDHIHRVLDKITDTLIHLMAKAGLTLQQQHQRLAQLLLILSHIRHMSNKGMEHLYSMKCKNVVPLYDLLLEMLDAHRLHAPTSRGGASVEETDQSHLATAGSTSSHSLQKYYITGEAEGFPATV
Description: Binding affinity for human Estrogen receptor alpha
`Oc1ccc(-c2ccc3c(Cl)c(O)ccc3n2)cc1`: half-maximal inhibition (IC50) required 632 nM.
Same read-out and setting: next, `CC(O)c1cc(-c2ccc(O)c(F)c2)nc2ccc(O)cc12` (stereo not drawn): over 5000 nM; `Oc1ccc(-c2ccc3c(Br)c(O)ccc3n2)cc1`: 1140 nM; `Oc1ccc2nc(-c3ccc(O)c(F)c3)cc(-c3ccccc3)c2c1`: 1810 nM.
On the same count and under the same terms, next, `C=Cc1cc(-c2ccc(O)c(F)c2)nc2ccc(O)cc12`: 385 nM.
Still for that read-out and setting: next, `CC(=O)c1cc(-c2ccc(O)cc2)nc2ccc(O)cc12`: 3140 nM; `Oc1ccc2nc(-c3cc(F)c(O)c(F)c3)cc(Br)c2c1`: 783 nM.
For `C#Cc1cc(-c2ccc(O)c(F)c2)nc2ccc(O)cc12`, the IC50 amounted to 1310 nM.
Molecule `CCc1cc(-c2ccc(O)cc2)nc2ccc(O)cc12` returned an IC50 of 634 nM.
The same measure, in the same setting: next, `CCc1cc(-c2ccc(O)c(F)c2)nc2ccc(O)cc12`: 1750 nM; `Oc1ccc(-c2ccc3cc(O)ccc3n2)cc1`: 1780 nM.
